According to patent publication US10881653B2, “Tricyclic compounds and their use in the treatment of cancer” (The United States of America, as represented by the …, priority 2015, dated 2021):
Counter-ions that a name gives are not always drawn. Like-named read-outs stand apart in the source and are kept apart here.

Experiments:
[1] = biological target: T1, recombinant thioredoxin reductase 1 (TrxR1) (Homo sapiens, UniProt Q16881); test: Inhibition of recombinant TrxR1 (DTNB assay); format: biochemical
T1 sequence (Q16881 1-649): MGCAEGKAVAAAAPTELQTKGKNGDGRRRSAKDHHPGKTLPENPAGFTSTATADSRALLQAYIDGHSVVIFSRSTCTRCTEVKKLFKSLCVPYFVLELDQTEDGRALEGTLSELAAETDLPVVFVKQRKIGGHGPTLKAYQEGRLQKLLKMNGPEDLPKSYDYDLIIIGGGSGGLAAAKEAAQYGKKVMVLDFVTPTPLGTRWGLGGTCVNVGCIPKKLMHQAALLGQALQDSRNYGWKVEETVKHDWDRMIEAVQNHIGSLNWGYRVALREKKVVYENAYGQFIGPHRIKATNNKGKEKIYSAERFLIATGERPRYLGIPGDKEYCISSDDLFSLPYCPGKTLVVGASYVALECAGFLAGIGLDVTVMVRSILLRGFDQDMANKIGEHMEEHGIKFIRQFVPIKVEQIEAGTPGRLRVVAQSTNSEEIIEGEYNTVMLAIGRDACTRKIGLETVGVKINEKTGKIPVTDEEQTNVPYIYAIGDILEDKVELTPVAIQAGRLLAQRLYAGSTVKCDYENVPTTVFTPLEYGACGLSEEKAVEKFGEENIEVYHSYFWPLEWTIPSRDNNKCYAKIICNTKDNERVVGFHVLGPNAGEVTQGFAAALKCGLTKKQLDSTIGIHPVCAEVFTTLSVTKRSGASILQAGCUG
Description: (§1) Small molecule inhibition of recombinant thioredoxin reductase 1 (TrxR1) and gluthathione reductase (GR) was examined in 96-well plate format. 15 nM TrxR1 was incubated in the presence of 250 μM NADPH, 0.1 mg/ml BSA, and various concentrations of the compound of Example 1 (1% DMSO final) in 50 mM Tris (pH 7.5) and 2 mM EDTA buffer for 15 minutes. Following the incubation period, 2.5 mM DTNB was added to each well and the change in O.D. at 412 nm was followed. Percent activity was determined using DMSO vehicle and no TrxR1 (blank) controls. 2 nM GR was incubated in the presence of 250 μM NADPH, 0.1 mg/ml BSA, and various concentrations of compounds (1% DMSO final) in 50 mM Tris (pH 7.5) and 2 mM EDTA buffer for 15 minutes. Following the incubation period, 1 mM GSSG was added to each well and the change in O.D. at 340 nm was followed. Percent activity was determined using DMSO vehicle and no GR (blank) controls.

[2] = biological target: T2, gluthathione reductase (GR) (Homo sapiens, UniProt P00390); test: Inhibition of recombinant GR (GSSG assay); format: biochemical
T2 sequence (P00390 44-522): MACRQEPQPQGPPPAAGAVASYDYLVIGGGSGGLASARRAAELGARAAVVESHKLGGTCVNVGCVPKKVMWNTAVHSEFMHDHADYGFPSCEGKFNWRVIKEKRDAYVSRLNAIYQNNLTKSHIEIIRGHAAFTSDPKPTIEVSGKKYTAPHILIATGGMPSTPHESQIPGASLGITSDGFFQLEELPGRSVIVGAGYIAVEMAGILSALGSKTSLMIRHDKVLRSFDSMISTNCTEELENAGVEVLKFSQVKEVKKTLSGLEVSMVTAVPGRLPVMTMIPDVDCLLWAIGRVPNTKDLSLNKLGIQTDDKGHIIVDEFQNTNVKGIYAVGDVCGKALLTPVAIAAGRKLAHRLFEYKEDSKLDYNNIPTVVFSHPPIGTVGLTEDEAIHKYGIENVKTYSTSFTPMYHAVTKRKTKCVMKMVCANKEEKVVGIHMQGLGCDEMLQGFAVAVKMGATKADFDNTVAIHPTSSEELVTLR
Description: as §1

[3] = Biological Example 1, 15 nM TrxR1, 250 μM NADPH, 15 minutes incubation, read-out: TrxR inhibition
[4] = Biological Example 4, assays of Biological Example 1, read-out: TrxR Inhibition
[5] = Biological Example 1, 2 nM GR, 250 μM NADPH, 15 minutes incubation
[6] = Biological Example 4, assays of Biological Example 1

Compound	IC50 [1, 3] [µM]	IC50 [1, 4] [µM]	IC50 [2, 5] [µM]	IC50 [2, 6] [µM]
O=C1C=C[C@H]2C3C(=O)N(C4CCCCC4)C(=O)C3[C@@H]1N2Cc1ccccc1 (mixture of isomers) [Example 10, endo-11-Benzyl-4-cyclohexyl-4,11-diazatricyclo[5.3.1.0^2,6]undec-9-ene-3,5,8-trione Trifluoroacetate]	2.7	0.79	> 100	> 100
CC(C)(C)N1C(=O)C2C(C1=O)[C@@H]1C=CC(=O)[C@H]2N1Cc1ccccc1 (mixture of isomers) [Example 16, endo 11-Benzyl-4-(tert-butyl)-4,11-diazatricyclo[5.3.1.0^2,6]undec-9-ene-3,5,8-trione Trifluoroacetate]	–	5.56	–	> 100
O=C1C=C[C@H]2C3C(=O)N(c4ccccc4)C(=O)C3[C@@H]1N2Cc1cc(F)ccc1F (mixture of isomers) [Example 26, endo 11-(2,5-Difluorobenzyl)-4-phenyl-4,11-diazatricyclo[5.3.1.0^2,6]undec-9-ene-3,5,8-trione Trifluoroacetate]	–	2.5	–	30.1
O=C1C=C[C@H]2C3C(=O)N(c4ccccc4)C(=O)C3[C@@H]1N2Cc1cccc(F)c1F (mixture of isomers) [Example 30, endo-11-(2,3-Difluorobenzyl)-4-phenyl-4,11-diazatricyclo[5.3.1.0^2,6]undec-9-ene-3,5,8-trione Trifluoroacetate]	–	1.87	–	25.2
CCN1C(=O)C2C(C1=O)[C@@H]1C=CC(=O)[C@H]2N1Cc1cccc(C)c1 (mixture of isomers) [Example 48, endo-4-Ethyl-11-(3-methylbenzyl)-4,11-diazatricyclo[5.3.1.0^2,6]undec-9-ene-3,5,8-trione Trifluoroacetate]	–	3.63	–	> 100
CN1C(=O)C2C(C1=O)[C@@H]1C=CC(=O)[C@H]2N1Cc1ccccc1 (mixture of isomers) [Example 50, endo-11-Benzyl-4-methyl-4,11-diazatricyclo[5.3.1.0^2,6]undec-9-ene-3,5,8-trione Trifluoroacetate]	–	3.08	–	> 100
O=C1C=C[C@H]2[C@@H]3C(=O)N(c4ccccc4)C(=O)[C@@H]3[C@@H]1N2Cc1ccc(-c2ccccc2)cc1 (relative stereo) [Example 2, exo-11-([1,1′-Biphenyl]-4-ylmethyl)-4-phenyl-4,11-diazatricyclo[5.3.1.0^2,6]-undec-9-ene-3,5,8-trione Trifluoroacetate]	–	1.46	–	65.2
CN1[C@@H]2C(=O)C=C[C@H]1[C@@H]1C(=O)N(c3ccccc3)C(=O)[C@@H]12 (relative stereo) [Example 3, exo-11-Methyl-4-phenyl-4,11-diazatricyclo[5.3.1.0^2,6]undec-9-ene-3,5,8-trione Trifluoroacetate]	3.09	1.12	44	23
Cc1ccc(CN2[C@@H]3C(=O)C=C[C@H]2[C@@H]2C(=O)N(c4ccccc4)C(=O)[C@@H]23)cc1 (relative stereo) [Example 4, exo-11-Methylbenzyl-4-phenyl-4,11-diazatricyclo[5.3.1.0^2,6]undec-9-ene-3,5,8-trione Trifluoroacetate]	–	1.18	–	55.6
O=C1C=C[C@H]2[C@@H]3C(=O)N(c4ccccc4)C(=O)[C@@H]3[C@@H]1N2CCc1ccccc1 (relative stereo) [Example 7, exo-4-Phenyl-11-(2-phenylethyl)-4,11-diazatricyclo[5.3.1.0^2,6]undec-9-ene-3,5,8-trione Trifluoroacetate]	1.75	1.97	> 100	> 100
O=C1C=CC2C3C(=O)N(c4ccccc4)C(=O)C3C1N2Cc1cccc(C(F)(F)F)c1F (stereo not drawn) [Example 44, exo-11-(2-Fluoro-3-(trifluoromethyl)benzyl)-4-phenyl-4,11-diazatricyclo-[5.3.1.0^2,6]undec-9-ene-3,5,8-trione Trifluoroacetate]	–	2.33	–	–
